*1 amine or outer side, *2 acyl side, *3 side chain or, on linkers, in order; H or OH if unused. Where a SMILES comes first, the peptide text is derived from it. Bridges are numbered along the chain shown (N, C = ends). [ ]: non-standard residue; d: D form. The star is where a group is joined. Ala(1-(4-CO-Ph)triazol-4-yl) = O=C([C@H](Cc1cn(-c2ccc(C(=O)[*:3])cc2)nn1)N[*:1])[*:2]; X1 = O=C(O)CN1CCN(CC(=O)O)CCN([C@H](CCC(=O)*)C(=O)O)CC1; X2 = Cc1ccc(CCCC(=O)NCCCC[C@H](N*)C(N)=O)cc1; AEEA = NCCOCCOCC(=O)O
Legend:
[1] = biological target: HSA (Homo sapiens, UniProt P02768); experiment: Estimation of Kd[HSA] from structure-activity relationships of the isolated cLABs
Description: Table S1: Comparison of estimated and determined Kd[HSA] values for the 64Cu-labeled TATE derivatives bearing an albumin […]
predicted determinedi predict./determ. cLAB1 R1-pentanoyl-D-Lys(IPB)-OH 8.0a 3.1j 2.6 cLAB2 R1-benzoyl-L-Lys(IPB)-OH 0.36b 1.8j 0.2 cLAB3 R1-benzoyl-L-Lys(IPB)-NH2 7.9c 9.2j 0.9 […]
cLAB4-scrTATE R1-benzoyl-L-Lys(MPB)-NH2 66d 42 1.6 a Represents the Kd value of the albumin binder (R)-1e (5-N3-pentanoyl-D-Lys(IPB)-OH).1 b Represents the Kd value of the albumin binder (S)-1f (4-N3-benzoyl-L-Lys(IPB)-OH).1 c Calculated using the Kd value of the respective carboxylic acid ((S)-1f) and a factor of 22, which is the factor between Acetyl-L-Lys(IPB)-OH ((S)-1c) an Acetyl-L-Lys(IPB)-NH2 ((S)-2a).1 […]
f Calculated using the Kd value of the respective carboxylic acid ((S)-1f) and the factors of 22 (carboxylic acid → carboxamide) and 2.2 (L → D configuration, factor between (S)-1c and (R)-1c).1 g Represents the Kd value determined for the non-radioactive compound using the fluorescence-based competition […]
h Compound names were abbreviated. i Determined using the radiometric ultrafiltration assay described in the main article. j Previously determined by us.1

[2] = Plasma stability assay, mouse plasma; type: in vitro ADME
Description: Previously, we discovered that the ^64Cu-labeled NODAGA-cLAB-TATEs with a primary amide functionality within the albumin-binding moiety are subject to a metabolic transformation in mouse plasma. In fact, the primary amide is slowly hydrolyzed to the carboxylic acid, which turned out to be catalyzed by plasma carboxylesterases as proven by blocking this transformation in the presence of bis-para-nitrophenylphosphate. […] As this transformation entails also an increase in the binding affinity to albumin, there might be effects on the biodistribution in mice, in particular the blood circulation time. To investigate this, NODAGA-cLAB6-TATE was designed, with cLAB6 (N3Bz-D-Lys(MPB)-NH2) representing the D-configured pendant of cLAB4 (N3Bz-L-Lys(MPB)-NH2). […] However, the apparent half-lives for both compounds (≈13 and >24 h) are longer compared to the half-lives previously determined for [ ^ 64 Cu]-Cu-NODAGA-cLAB3-TATE and [ ^ 64 Cu]-Cu-NODAGA-cLAB4-TATE (≈6 and ≈3 h, respectively). For better comparability, the stability of [ ^ 64 Cu]-Cu-NODAGA-cLAB4-TATE was again examined with the same mouse plasma batch used for [ ^ 64 Cu]-Cu-NODAGA-cLAB5-TATE and [ ^ 64 Cu]-Cu-NODAGA-cLAB4- scr TATE. […] Therefore, the discrepancy with our previously reported stability data in mouse plasma might result from differences in the activity of plasma carboxylesterases in the obtained mouse plasma. However, the rate of amide hydrolysis is indeed lower for [ ^ 64 Cu]-Cu-NODAGA-cLAB4- scr TATE, independent of the mouse plasma batch, which might indicate that the actual amino acid sequence in these peptides affects the recognition by the plasma carboxylesterases.
2 Stability of the ^64Cu-labeled TATE derivatives in mouse plasma. (A) Radio-HPLC chromatograms of [^64Cu]-Cu-NODAGA-cLAB5-TATE (red), [^64Cu]-Cu-NODAGA-cLAB6-TATE (green), and [^64Cu]-Cu-NODAGA-cLAB- scr TATE (blue) after ^64Cu-labeling and incubation in mouse plasma for 24 h show the transformation of [^64Cu]-Cu-NODAGA-cLAB5-TATE and [^64Cu]-Cu-NODAGA-cLAB4- scr TATE into a metabolite of higher retention time (see the Discussion for explanation). (B) Plot of residual intact radioligands upon incubation with mouse plasma including nonlinear regression (black line) according to one-phase decay for [^64Cu]-Cu-NODAGA-cLAB5-TATE (red circles). The dotted lines represent fractions of 0.5 and 0.9. Data shown are mean values (±SD) from 1 to 3 experiments (each experiment was performed in single execution). […]
Plasma stability of the radioligands was done as previously described for NODAGA-cLAB-TATE and NODAGA-NES-TATEs. , Briefly, an aliquot of the radioligand was added to plasma and stability was assessed at different time points by withdrawing an aliquot, followed by protein precipitation and analysis by radio-HPLC.

[3] = n-Octanol/PBS distribution coefficient (log D7.4)

Sequence of HSA (P02768 25-609): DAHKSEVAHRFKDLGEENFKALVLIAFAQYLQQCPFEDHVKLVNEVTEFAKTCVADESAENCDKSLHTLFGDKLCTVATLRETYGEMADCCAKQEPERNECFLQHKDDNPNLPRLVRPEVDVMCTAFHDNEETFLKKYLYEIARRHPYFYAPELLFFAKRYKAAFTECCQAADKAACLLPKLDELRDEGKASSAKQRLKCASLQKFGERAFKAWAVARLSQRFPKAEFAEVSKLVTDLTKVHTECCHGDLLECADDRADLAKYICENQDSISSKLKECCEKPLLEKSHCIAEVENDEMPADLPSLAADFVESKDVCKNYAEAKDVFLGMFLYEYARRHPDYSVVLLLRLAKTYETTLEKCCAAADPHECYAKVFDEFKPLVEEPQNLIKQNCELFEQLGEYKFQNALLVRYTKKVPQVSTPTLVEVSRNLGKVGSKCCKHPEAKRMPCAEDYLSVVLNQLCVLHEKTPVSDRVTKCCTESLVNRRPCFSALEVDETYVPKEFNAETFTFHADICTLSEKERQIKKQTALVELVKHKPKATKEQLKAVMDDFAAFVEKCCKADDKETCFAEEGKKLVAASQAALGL

- Ratio Kd predict./determ. [1]: 1.6
- half-life ([2]; 37 °C, up to 24 h, single experiment, read-out: t1/2 (plasma), mouse): > 24 h
- hydrolysis of the primary amide in mouse plasma ([2]; 24 h, radio-HPLC): hydrolyzed
- logD [3]: -2.17
Structure (SMILES): Cc1ccc(CCCC(=O)NCCCC[C@H](NC(=O)c2ccc(-n3cc(C[C@H](NC(=O)CC[C@H](C(=O)O)N4CCN(CC(=O)O)CCN(CC(=O)O)CC4)C(=O)NCCOCCOCC(=O)N[C@@H](CCCCN)C(=O)N[C@H]4CSSC[C@@H](C(=O)N[C@H](C(=O)O)[C@@H](C)O)NC(=O)[C@@H](Cc5c[nH]c6ccccc56)NC(=O)[C@@H](Cc5ccccc5)NC(=O)[C@H]([C@@H](C)O)NC(=O)[C@H](Cc5ccc(O)cc5)NC4=O)nn3)cc2)C(N)=O)cc1 [[64Cu]Cu-NODAGA-cLAB4-scrTATE, metal not drawn] (X1-[Ala(1-(4-CO-Ph)triazol-4-yl)](X2)[AEEA]KCYT[dF][dW]CT-OH; disulfide 4-9)

Reference: publication PMC12169663, “Deciphering the Tumor Uptake of Heterobivalent (SST2/Albumin) [^64Cu]Cu-NODAGA-cLAB-TATEs” (Journal of Medicinal Chemistry, 2025)
